Tests used:
[1] = Oral bioavailability in monkey at 2 mg/kg; type: ADME, organism-based, Macaca mulatta; settings: rhesus monkey, in vivo
[2] = AUC (0 to 24 hrs) in monkey at 2 mg/kg, po; type: ADME, organism-based, Macaca mulatta; design: time < 24 hr, dose 2 mg/kg, route oral; settings: rhesus monkey, plasma
[3] = target: Voltage-dependent T-type calcium channel subunit alpha-1I (Homo sapiens) (UniProt Q9P0X4); test: Antagonist activity at T type calcium channel Cav3.3 alpha1i at -20 mV by FLIPR assay; type: functional
Voltage-dependent T-type calcium channel subunit alpha-1I (Homo sapiens), sequence (Q9P0X4 whole entry): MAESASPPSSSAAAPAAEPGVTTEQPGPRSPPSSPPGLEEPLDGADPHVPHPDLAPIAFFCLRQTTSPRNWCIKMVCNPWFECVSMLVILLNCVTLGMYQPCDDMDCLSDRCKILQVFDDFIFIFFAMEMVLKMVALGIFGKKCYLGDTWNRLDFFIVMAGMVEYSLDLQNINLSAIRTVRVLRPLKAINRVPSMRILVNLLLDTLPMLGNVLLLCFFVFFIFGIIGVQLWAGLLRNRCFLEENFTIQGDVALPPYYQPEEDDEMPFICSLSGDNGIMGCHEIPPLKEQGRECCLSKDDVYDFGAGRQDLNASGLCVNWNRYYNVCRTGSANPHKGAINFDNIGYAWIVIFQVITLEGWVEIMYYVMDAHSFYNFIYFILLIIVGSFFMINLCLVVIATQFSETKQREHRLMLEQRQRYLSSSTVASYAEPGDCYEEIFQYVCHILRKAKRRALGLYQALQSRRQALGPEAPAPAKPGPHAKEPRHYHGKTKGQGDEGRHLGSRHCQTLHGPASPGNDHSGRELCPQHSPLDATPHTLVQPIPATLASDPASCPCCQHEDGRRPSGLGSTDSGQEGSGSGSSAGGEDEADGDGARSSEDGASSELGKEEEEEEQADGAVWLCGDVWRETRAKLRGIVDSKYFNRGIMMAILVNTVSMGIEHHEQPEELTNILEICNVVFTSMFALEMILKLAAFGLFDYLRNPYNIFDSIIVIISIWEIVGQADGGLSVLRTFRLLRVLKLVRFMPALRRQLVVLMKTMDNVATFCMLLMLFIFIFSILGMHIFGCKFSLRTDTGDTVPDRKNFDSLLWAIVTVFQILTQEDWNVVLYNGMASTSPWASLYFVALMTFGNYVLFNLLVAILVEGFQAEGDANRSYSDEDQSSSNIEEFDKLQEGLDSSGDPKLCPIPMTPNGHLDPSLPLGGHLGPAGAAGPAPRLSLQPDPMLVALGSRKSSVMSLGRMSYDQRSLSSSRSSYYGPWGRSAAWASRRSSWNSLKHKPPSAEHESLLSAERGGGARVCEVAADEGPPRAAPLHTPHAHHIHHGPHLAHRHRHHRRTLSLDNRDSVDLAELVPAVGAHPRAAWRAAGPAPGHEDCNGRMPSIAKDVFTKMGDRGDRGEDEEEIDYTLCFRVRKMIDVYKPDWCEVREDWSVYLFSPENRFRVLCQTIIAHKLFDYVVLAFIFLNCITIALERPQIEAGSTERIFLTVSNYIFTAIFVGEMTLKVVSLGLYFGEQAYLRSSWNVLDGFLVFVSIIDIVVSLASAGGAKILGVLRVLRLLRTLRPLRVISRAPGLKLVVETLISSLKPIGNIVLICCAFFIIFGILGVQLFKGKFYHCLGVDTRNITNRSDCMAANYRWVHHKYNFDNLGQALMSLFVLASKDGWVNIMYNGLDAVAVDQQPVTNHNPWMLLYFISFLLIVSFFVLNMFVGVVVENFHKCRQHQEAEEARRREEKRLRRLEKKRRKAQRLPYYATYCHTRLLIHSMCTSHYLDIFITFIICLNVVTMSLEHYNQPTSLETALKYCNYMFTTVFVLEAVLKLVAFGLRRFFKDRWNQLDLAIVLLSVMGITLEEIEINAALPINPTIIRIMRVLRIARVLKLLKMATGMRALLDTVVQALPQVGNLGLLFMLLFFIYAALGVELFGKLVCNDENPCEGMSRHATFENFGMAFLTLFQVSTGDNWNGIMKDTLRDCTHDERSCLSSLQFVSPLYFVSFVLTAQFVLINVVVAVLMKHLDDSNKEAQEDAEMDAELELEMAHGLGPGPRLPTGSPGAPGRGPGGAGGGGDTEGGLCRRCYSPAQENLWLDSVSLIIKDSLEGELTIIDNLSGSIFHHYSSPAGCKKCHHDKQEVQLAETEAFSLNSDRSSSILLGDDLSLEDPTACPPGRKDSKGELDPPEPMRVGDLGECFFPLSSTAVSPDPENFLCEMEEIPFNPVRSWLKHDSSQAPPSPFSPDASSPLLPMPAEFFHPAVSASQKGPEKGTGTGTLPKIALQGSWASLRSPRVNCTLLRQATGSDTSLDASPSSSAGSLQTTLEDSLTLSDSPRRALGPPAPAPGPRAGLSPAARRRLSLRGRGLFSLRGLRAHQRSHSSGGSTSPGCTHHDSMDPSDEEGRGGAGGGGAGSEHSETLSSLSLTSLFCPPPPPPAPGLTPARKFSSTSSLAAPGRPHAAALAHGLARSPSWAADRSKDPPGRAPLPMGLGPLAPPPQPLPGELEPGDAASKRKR

[4] = Cmax in Wistar albino Glaxo rat model of absence epilepsy at 3 mg/kg; type: ADME, organism-based; design: dose 3 mg/kg; settings: in vivo
[5] = Half life in dog at 0.5 mg/kg, iv; type: ADME, organism-based, Canis lupus familiaris; design: dose 0.5 mg/kg, route intravenous; settings: in vivo
[6] = Oral bioavailability in dog at 1 mg/kg; type: ADME, organism-based, Canis lupus familiaris; settings: in vivo
[7] = Volume of distribution at steady state in rat at 1 mg/kg, iv; type: ADME, organism-based; design: dose 1 mg/kg, route intravenous; settings: in vivo, read-out: Vdss
[8] = Cmax in monkey at 2 mg/kg, po; type: ADME, organism-based, Macaca mulatta; design: dose 2 mg/kg, route oral; settings: rhesus monkey, in vivo
Canis familiaris [9] = test: Toxicity in dog assessed as effect on urine flow at 20 mg/kg, po after 3 hrs; type: organism-based, Canis lupus familiaris; design: dose 20 mg/kg, route oral; settings: in vivo
[10] = Cmax in dog at 1 mg/kg, po; type: ADME, organism-based, Canis lupus familiaris; design: dose 1 mg/kg, route oral; settings: in vivo
[11] = Antagonist activity at T type calcium channel at -80 mV by voltage-clamp electrophysiology assay; type: functional
Canis familiaris [12] = test: Toxicity in dog assessed as increase in heart rate at 20 mg/kg, po after 3 hrs; type: organism-based, Canis lupus familiaris; design: dose 20 mg/kg, route oral; settings: in vivo
Canis familiaris [13] = test: Toxicity in dog assessed as effect on urinary excretion of sodium and potassium at 20 mg/kg, po after 3 hrs; type: organism-based, Canis lupus familiaris, Urine; design: dose 20 mg/kg, route oral; settings: in vivo
[14] = Cmax in Wistar albino Glaxo rat model of absence epilepsy at 10 mg/kg; type: ADME, organism-based; design: dose 10 mg/kg; settings: in vivo
[15] = Cmax in Wistar albino Glaxo rat model of absence epilepsy at 1 mg/kg; type: ADME, organism-based; design: dose 1 mg/kg; settings: in vivo
[16] = Protein binding in monkey plasma; type: ADME, cell-free, Macaca mulatta; settings: rhesus monkey, read-out: PPB (converted)
[17] = Cmax in rat at 10 mg/kg, po; type: ADME, organism-based; design: dose 10 mg/kg, route oral; settings: in vivo
[18] = target: Voltage-dependent N-type calcium channel subunit alpha-1B (Homo sapiens) (UniProt Q00975); test: Inhibition of calcium channel Cav2.2 at 10 uM by high throughput assay
[19] = Drug level in dog plasma at 4.30 mg/kg, iv measured at end of 60 mins infusion; type: ADME, organism-based, Canis lupus familiaris; design: dose 4.3 mg/kg, route intravenous; settings: 4.3 mg/kg, read-out: Drug uptake
[20] = Clearance in rat at 1 mg/kg, iv; type: ADME, organism-based; design: dose 1 mg/kg, route intravenous; settings: in vivo
Canis familiaris [21] = test: Drug level in dog plasma at 20 mg/kg, po; type: ADME, organism-based, Canis lupus familiaris; design: dose 20 mg/kg, route oral; settings: in vivo, read-out: Drug uptake
Rattus norvegicus [22] = organism: Rattus norvegicus; test: Decrease in seizure time in Wistar albino Glaxo rat model of absence epilepsy after 4 hrs; type: functional
[23] = Tmax in dog at 1 mg/kg, po; type: ADME, organism-based, Canis lupus familiaris; design: dose 1 mg/kg, route oral; settings: in vivo
[24] = AUC (0 to 24 hrs) in rat at 10 mg/kg, po; type: ADME, organism-based; design: time < 24 hr, dose 10 mg/kg, route oral; settings: plasma
Canis familiaris [25] = test: Toxicity in dog assessed as effect on glomerular filtration at 20 mg/kg, po after 3 hrs; type: organism-based, Canis lupus familiaris; design: dose 20 mg/kg, route oral; settings: in vivo
[26] = Ratio of drug level in cerebrospinal fluid to plasma in rat after 9 hrs; type: ADME, CSF/Plasma
[27] = target: Sodium channel protein type 5 subunit alpha (Homo sapiens, UniProt Q14524); test: Inhibition of sodium channel Nav1.5 by voltage-clamp method
[28] = Inhibition of sodium channel site 2 by binding assay
Canis familiaris [29] = test: Toxicity in dog assessed as effect on plasma electrolytes at 20 mg/kg, po after 3 hrs; type: organism-based, Canis lupus familiaris; design: dose 20 mg/kg, route oral; settings: in vivo
[30] = Oral bioavailability in rat at 10 mg/kg; type: ADME, organism-based; settings: in vivo
[31] = AUC (0 to 4 hrs) in Wistar albino Glaxo rat model of absence epilepsy at 10 mg/kg; type: ADME, organism-based; design: time < 4 hr, dose 10 mg/kg; settings: in vivo
[32] = Tmax in rat at 10 mg/kg, po; type: ADME, organism-based; design: dose 10 mg/kg, route oral; settings: in vivo
[33] = Protein binding in rat plasma; type: ADME, cell-free; settings: read-out: PPB (converted)
Canis familiaris [34] = test: Toxicity in dog assessed as effect on blood pressure at 20 mg/kg, po after 3 hrs; type: organism-based, Canis lupus familiaris; design: dose 20 mg/kg, route oral; settings: in vivo
[35] = target: Voltage-dependent T-type calcium channel subunit alpha-1I (Homo sapiens) (UniProt Q9P0X4); test: Antagonist activity at T type calcium channel Cav3.3 alpha1i at -60 mV by FLIPR assay; type: functional
Rattus norvegicus [36] = organism: Rattus norvegicus; test: Decrease in tremor activity in harmaline-induced rat model; type: functional, organism-based
[37] = Antagonist activity at sigma receptor in guinea pig vas deferens at 30 uM; type: functional, Cavia porcellus; design: scale not given: the % may be the effect or the level left
[38] = Volume of distribution at steady state in monkey at 0.5 mg/kg, iv; type: ADME, organism-based, Macaca mulatta; design: dose 0.5 mg/kg, route intravenous; settings: rhesus monkey, in vivo, read-out: Vdss
[39] = Half life in rat at 1 mg/kg, iv; type: ADME, organism-based; design: dose 1 mg/kg, route intravenous; settings: in vivo
[40] = Binding affinity to sigma receptor
[41] = AUC (0 to 24 hrs) in dog at 1 mg/kg, po; type: ADME, organism-based, Canis lupus familiaris; design: time < 24 hr, dose 1 mg/kg, route oral; settings: plasma
[42] = AUC (0 to 4 hrs) in Wistar albino Glaxo rat model of absence epilepsy at 3 mg/kg; type: ADME, organism-based; design: time < 4 hr, dose 3 mg/kg; settings: in vivo
[43] = Drug level in dog plasma at 1.29 mg/kg, iv measured at end of 60 mins infusion; type: ADME, organism-based, Canis lupus familiaris; design: dose 1.29 mg/kg, route intravenous; settings: read-out: Drug uptake
[44] = Half life in monkey at 0.5 mg/kg, iv; type: ADME, organism-based, Macaca mulatta; design: dose 0.5 mg/kg, route intravenous; settings: rhesus monkey, in vivo
[45] = Protein binding in dog plasma; type: ADME, cell-free, Canis lupus familiaris; settings: read-out: PPB
Canis familiaris [46] = test: Toxicity in dog assessed as effect on renal plasma flow at 20 mg/kg, po after 3 hrs; type: organism-based, Canis lupus familiaris; design: dose 20 mg/kg, route oral; settings: in vivo
[47] = Antagonist activity at T type calcium channel at -100 mV by voltage-clamp electrophysiology assay; type: functional
[48] = Tmax in monkey at 2 mg/kg, po; type: ADME, organism-based, Macaca mulatta; design: dose 2 mg/kg, route oral; settings: rhesus monkey, in vivo
[49] = Volume of distribution at steady state in dog at 0.5 mg/kg, iv; type: ADME, organism-based, Canis lupus familiaris; design: dose 0.5 mg/kg, route intravenous; settings: in vivo, read-out: Vdss
[50] = target: Voltage-dependent T-type calcium channel subunit alpha-1H (Homo sapiens) (UniProt O95180); test: Antagonist activity at T type calcium channel Cav3.2 alpha-1H at -100 mV by voltage-clamp electrophysiology assay; type: functional
Voltage-dependent T-type calcium channel subunit alpha-1H (Homo sapiens), sequence (O95180 whole entry): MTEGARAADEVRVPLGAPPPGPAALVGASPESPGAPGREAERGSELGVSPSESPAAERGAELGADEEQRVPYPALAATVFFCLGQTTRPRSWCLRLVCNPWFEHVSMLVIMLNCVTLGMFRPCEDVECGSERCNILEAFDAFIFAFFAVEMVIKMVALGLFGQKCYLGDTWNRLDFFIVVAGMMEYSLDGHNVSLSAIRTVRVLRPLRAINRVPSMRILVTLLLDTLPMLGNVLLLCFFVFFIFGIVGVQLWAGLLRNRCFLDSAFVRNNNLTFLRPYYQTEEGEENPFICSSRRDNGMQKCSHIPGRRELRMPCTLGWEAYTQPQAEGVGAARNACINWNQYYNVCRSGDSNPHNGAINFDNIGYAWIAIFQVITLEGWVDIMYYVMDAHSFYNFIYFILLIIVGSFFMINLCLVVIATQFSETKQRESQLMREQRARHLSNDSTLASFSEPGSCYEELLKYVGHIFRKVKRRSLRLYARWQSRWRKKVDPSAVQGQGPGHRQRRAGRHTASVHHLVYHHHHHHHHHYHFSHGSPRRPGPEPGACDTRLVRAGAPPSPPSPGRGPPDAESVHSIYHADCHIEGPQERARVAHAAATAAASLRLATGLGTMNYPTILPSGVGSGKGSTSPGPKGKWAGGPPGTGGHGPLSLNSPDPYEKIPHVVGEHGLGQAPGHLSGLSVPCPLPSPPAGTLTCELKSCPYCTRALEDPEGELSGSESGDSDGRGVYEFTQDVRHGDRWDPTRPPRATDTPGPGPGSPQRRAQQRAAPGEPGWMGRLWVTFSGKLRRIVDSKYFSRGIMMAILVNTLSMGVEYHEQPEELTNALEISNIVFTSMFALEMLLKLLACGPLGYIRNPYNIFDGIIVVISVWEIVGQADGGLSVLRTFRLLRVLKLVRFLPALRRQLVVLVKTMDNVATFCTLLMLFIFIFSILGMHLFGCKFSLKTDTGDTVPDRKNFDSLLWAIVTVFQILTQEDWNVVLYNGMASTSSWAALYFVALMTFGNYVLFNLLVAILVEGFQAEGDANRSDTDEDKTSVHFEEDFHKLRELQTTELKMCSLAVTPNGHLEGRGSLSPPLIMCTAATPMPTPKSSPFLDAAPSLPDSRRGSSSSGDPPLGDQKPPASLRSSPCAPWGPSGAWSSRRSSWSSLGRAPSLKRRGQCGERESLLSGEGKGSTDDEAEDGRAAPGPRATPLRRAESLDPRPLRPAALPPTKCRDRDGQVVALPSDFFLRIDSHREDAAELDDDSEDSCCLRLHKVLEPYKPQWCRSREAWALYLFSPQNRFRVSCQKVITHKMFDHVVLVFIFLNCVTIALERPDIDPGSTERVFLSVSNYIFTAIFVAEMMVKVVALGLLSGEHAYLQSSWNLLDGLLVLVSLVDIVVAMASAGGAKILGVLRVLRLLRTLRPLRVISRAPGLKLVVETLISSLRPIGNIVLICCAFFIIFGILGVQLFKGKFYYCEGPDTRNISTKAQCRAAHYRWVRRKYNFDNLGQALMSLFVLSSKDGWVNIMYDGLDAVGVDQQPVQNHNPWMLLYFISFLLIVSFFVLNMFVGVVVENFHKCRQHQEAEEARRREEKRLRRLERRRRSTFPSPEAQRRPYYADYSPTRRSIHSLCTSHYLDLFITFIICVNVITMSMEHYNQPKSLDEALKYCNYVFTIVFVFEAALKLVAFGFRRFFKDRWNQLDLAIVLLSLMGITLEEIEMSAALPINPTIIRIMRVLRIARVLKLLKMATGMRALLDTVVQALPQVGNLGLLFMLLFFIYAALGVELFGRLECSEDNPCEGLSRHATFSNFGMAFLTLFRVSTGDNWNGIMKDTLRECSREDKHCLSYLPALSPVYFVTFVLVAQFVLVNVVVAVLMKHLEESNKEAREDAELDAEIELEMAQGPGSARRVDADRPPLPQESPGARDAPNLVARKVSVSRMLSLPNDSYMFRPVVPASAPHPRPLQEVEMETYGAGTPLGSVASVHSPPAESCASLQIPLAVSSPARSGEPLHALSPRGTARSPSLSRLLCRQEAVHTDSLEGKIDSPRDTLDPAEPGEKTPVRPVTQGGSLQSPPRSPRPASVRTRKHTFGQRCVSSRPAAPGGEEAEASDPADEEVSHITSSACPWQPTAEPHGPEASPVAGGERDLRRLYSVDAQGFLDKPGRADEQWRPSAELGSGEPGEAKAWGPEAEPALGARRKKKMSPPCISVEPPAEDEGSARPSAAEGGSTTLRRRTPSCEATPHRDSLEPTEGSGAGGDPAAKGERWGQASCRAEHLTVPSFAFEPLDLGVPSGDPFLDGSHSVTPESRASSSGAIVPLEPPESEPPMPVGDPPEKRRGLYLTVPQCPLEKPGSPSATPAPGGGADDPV

Canis familiaris [51] = test: Toxicity in dog assessed as effect on ECG intervals at 20 mg/kg, po after 3 hrs; type: organism-based, Canis lupus familiaris; design: dose 20 mg/kg, route oral; settings: in vivo
[52] = Clearance in dog at 0.5 mg/kg, iv; type: ADME, organism-based, Canis lupus familiaris; design: dose 0.5 mg/kg, route intravenous; settings: in vivo
[53] = target: Voltage-dependent T-type calcium channel subunit alpha-1G (Homo sapiens) (UniProt O43497); test: Antagonist activity at T type calcium channel Cav3.1 alpha-1G at -100 mV by voltage-clamp electrophysiology assay; type: functional
[54] = Ratio of drug level in brain to plasma in rat after 9 hrs; type: ADME, cell-free
[55] = AUC (0 to 4 hrs) in Wistar albino Glaxo rat model of absence epilepsy at 1 mg/kg; type: ADME, organism-based; design: time < 4 hr, dose 1 mg/kg; settings: in vivo
[56] = Clearance in monkey at 0.5 mg/kg, iv; type: ADME, organism-based, Macaca mulatta; design: dose 0.5 mg/kg, route intravenous; settings: rhesus monkey, in vivo
[57] = Binding affinity to L type calcium channel by binding assay
[58] = target: Voltage-gated inwardly rectifying potassium channel KCNH2 (Homo sapiens, UniProt Q12809)

Question: What does the source list for `CC1(C)C[C@@H](CN2CCC(F)(CNC(=O)c3cc(Cl)cc(Cl)c3)CC2)CCO1`?
Answer: bioavailability [1]: 44%; AUC(0-t) at 24 h [2]: 3.2 µM·h; Activity [3]: 84 nM; Cmax [4]: 190 nM; half-life [5]: 4.7 h; bioavailability [6]: 87%; Vd [7]: 10 L/kg; Cmax [8]: 580 nM; Activity (Canis familiaris [9]): Non-toxic; Cmax [10]: 2180 nM; Activity [11]: 115 nM; Activity (Canis familiaris [12]): Toxic; Activity (Canis familiaris [13]): Non-toxic; Cmax [14]: 1000 nM; Cmax [15]: 60 nM; fraction unbound [16]: 0.025; Cmax [17]: 480 nM; inhibition [18]: 18%; concentration at 1 h [19]: 4600 nM; clearance [20]: 75 mL/min/kg; concentration (Canis familiaris [21]): 34500 nM; inhibition (INH) (Rattus norvegicus [22]): 81%; Tmax [23]: 3.1 h; AUC(0-t) at 24 h [24]: 1.94 µM·h; Activity (Canis familiaris [25]): Non-toxic; Kp at 9 h [26]: 2.8; IC50 [27]: 84 µM; IC50 [28]: 1.9 µM; Activity (Canis familiaris [29]): Non-toxic; bioavailability [30]: 36%; AUC(0-t) at 4 h [31]: 2.96 µM·h; Tmax [32]: 0.7 h; fraction unbound [33]: 0.057; Activity (Canis familiaris [34]): Non-toxic; Activity [35]: 181 nM; Activity (Rattus norvegicus [36]): Dose-dependent effect; Activity [37]: 30%; Vd [38]: 3.8 L/kg; half-life [39]: 1.8 h; Ki [40]: < 0.1 µM; AUC(0-t) at 24 h [41]: 15.8 µM·h; AUC(0-t) at 4 h [42]: 0.54 µM·h; concentration at 1 h [43]: 1500 nM; half-life [44]: 3.3 h; fraction unbound [45]: 0.01; Activity (Canis familiaris [46]): Non-toxic; Activity [47]: 84 nM; Tmax [48]: 1.5 h; Vd [49]: 1 L/kg; Activity [50]: 196 nM; Activity (Canis familiaris [51]): Non-toxic; clearance [52]: 2.3 mL/min/kg; Activity [53]: 93 nM; Kp at 9 h [54]: 6; AUC(0-t) at 4 h [55]: 0.15 µM·h; clearance [56]: 13.6 mL/min/kg

Question: With `CC(C)(C)CCN1CCC(CNC(=O)c2cc(Cl)cc(Cl)c2)CC1` as the compound, how does the Activity [35] read?
Answer: Its Activity is 98 nM.

Question: For `CC(C)(C)CCN1CCC(F)(CNC(=O)c2cc(Cl)cc(Cl)c2)CC1`, which IC50 [57] is on record?
Answer: Its IC50 is 0.94 µM.

Question: And the IC50 [58]?
Answer: The IC50 was 2.22 µM.

Question: What about the Activity [3] of the same compound?
Answer: The Activity was 66 nM.

Question: And the Activity [35]?
Answer: Its Activity is 64 nM.

Question: Which Activity [3] does the source give for `CC1(C)C[C@H](CN2CCC(F)(CNC(=O)c3cc(Cl)cc(Cl)c3)CC2)CCO1` here?
Answer: Its Activity is 94 nM.

Question: And the “inhibition (INH)” value (Rattus norvegicus [22])?
Answer: Its value is 63%.

Question: And the Activity [35]?
Answer: The Activity was 297 nM.

Question: Which results are given for `CC1(C)CC(CN2CCC(F)(CNC(=O)c3cc(Cl)cc(Cl)c3)CC2)CCO1` (racemic)?
Answer: Activity [3]: 145 nM; Activity [35]: 333 nM
